Results taken from ChEMBL document CHEMBL4428124, “Advances in rationally designed dual inhibitors of HIV-1 reverse transcriptase and integrase” (Bioorg Med Chem, 2016).

Columns and labels:
[1] = molecular target: Human immunodeficiency virus type 1 reverse transcriptase (Human immunodeficiency virus 1, UniProt Q72547); assay: Inhibition of recombinant HIV1 RT
[2] = system: Human immunodeficiency virus 1; assay: Antiviral activity against HIV1; assay type: functional, organism-based

SMILES	IC50 [1]	EC50 [2]
O=c1[nH]c(SCc2ccccc2)nc(C(O)c2ccccc2)c1O (centres undefined)	> 200 µM	36.5 µM
O=C(c1ccc(Cl)cc1)c1nc(SCc2ccccc2)[nH]c(=O)c1O	113 µM	164 µM
O=C(c1ccc(Br)cc1)c1nc(SCc2ccccc2)[nH]c(=O)c1O	> 200 µM	175 µM

Further compounds by falling EC50 [2], results first:

IC50 [1]	EC50 [2]	SMILES
95.1 µM	36 µM	O=C(c1ccccc1)c1nc(SCc2ccccc2)[nH]c(=O)c1O
–	0.021 µM	CC(C)Nc1cccnc1N1CCN(C(=O)c2cc3cc(NS(C)(=O)=O)ccc3[nH]2)CC1 [DELAVIRDINE]
